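How tested: cells in 96-well plates exposed to compound for 48 hours at five concentrations. GI50 = concentration required for 50% inhibition of growth.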 Calls of active or inactive are those of the source. No stated cut-off is given here; in the data, active = GI50 up to about 1.1 µM and inactive = higher.
Tests used:
Assay in all cases: inhibition of tumour cell growth, NCI panel, 48 h
M14 = system: M14
A498 = system: A498
SK-OV-3 = system: SK-OV-3
UACC-62 = system: UACC-62
A549 = system: A549
HOP-92 = system: HOP-92
K562 = system: K562
CAKI-1 = system: CAKI-1
SF-539 = system: SF-539
LOX IMVI = system: LOX IMVI
SF-268 = system: SF-268
HT-29 = system: HT-29
NCI-H226 = system: NCI-H226
SR = system: SR
ACHN = system: ACHN
IGROV-1 = system: IGROV-1
KM12 = system: KM12

Measured: GI50

COC(=O)C(=O)Cc1nc2ccccc2s1
inactive: M14 > 100 µM | A498 > 100 µM | SK-OV-3 > 100 µM | UACC-62 > 100 µM | A549 > 100 µM | HOP-92 > 100 µM | K562 > 100 µM | CAKI-1 > 100 µM | SF-539 > 100 µM | LOX IMVI > 100 µM | SF-268 > 100 µM | HT-29 > 100 µM | NCI-H226 > 100 µM | SR > 100 µM | ACHN > 100 µM | IGROV-1 > 100 µM

Cn1c(O)c(C(=O)NC2CCCCC2)c(=O)n(C)c1=S
inactive: M14 8.02 µM | A498 4.44 µM | SK-OV-3 5.64 µM | UACC-62 4.57 µM | A549 3.3 µM | HOP-92 3.59 µM | CAKI-1 5.89 µM | KM12 9.66 µM | SF-539 9.16 µM | LOX IMVI 8.81 µM | SF-268 4.56 µM | NCI-H226 8.57 µM | SR 17.9 µM | ACHN 3.57 µM | IGROV-1 4.89 µM

O=C1C=CC(S(=O)(=O)C2=C/C(=C/Nc3ccc(Cl)cc3)C(=O)C=C2)=C/C1=C/Nc1ccc(Cl)cc1
inactive: M14 > 100 µM | A498 > 100 µM | SK-OV-3 > 100 µM | UACC-62 > 100 µM | A549 > 100 µM | HOP-92 > 100 µM | K562 > 100 µM | CAKI-1 > 100 µM | KM12 > 100 µM | SF-539 > 100 µM | LOX IMVI > 100 µM | SF-268 > 100 µM | HT-29 > 100 µM | NCI-H226 > 100 µM | SR > 100 µM | ACHN > 100 µM | IGROV-1 > 100 µM

FC(F)(F)C12C34C=CC5(CCC6(C=CC1(CC3)O6)C52C(F)(F)F)O4 (stereo not given)
inactive: A498 > 100 µM | SK-OV-3 > 100 µM | A549 > 100 µM | HOP-92 > 100 µM | K562 > 100 µM | CAKI-1 > 100 µM | KM12 > 100 µM | SF-539 > 100 µM | LOX IMVI > 100 µM | SF-268 > 100 µM | HT-29 > 100 µM | NCI-H226 > 100 µM | SR > 100 µM | ACHN > 100 µM | IGROV-1 > 100 µM

CCOc1ccccc1NC(=O)CCc1nnc2s/c(=C\CCc3ccccc3)c(=O)n12
inactive: M14 > 100 µM | A498 > 100 µM | SK-OV-3 > 100 µM | UACC-62 > 100 µM | A549 > 100 µM | HOP-92 > 100 µM | K562 > 100 µM | CAKI-1 > 100 µM | KM12 > 100 µM | SF-539 > 100 µM | LOX IMVI > 100 µM | SF-268 > 100 µM | HT-29 > 100 µM | NCI-H226 > 100 µM | SR > 100 µM | ACHN > 100 µM | IGROV-1 > 100 µM

Reference: ChEMBL document CHEMBL1201862, “PubChem BioAssay data set” (2004)
